Results: patent US8759366B2, “Aminopyrimidines as SYK inhibitors” (Merck Sharp & Dohme Corp., priority 2009, dated 2014)
pIC50: −log10 of the molar value. Like-named read-outs stand apart in the source and are kept apart here. Blank lines part the entries; values can stand above or below the compound they belong to.

Biological target: recombinant human SYK (GST-hSYK fusion protein) (Homo sapiens (Human), UniProt P43405)
[1] = read-out: rhSYK Activity, recombinant human SYK, HTRF assay, class symbols
[2] = read-out: rhSYK Activity, Table 119, HTRF assay, IC50 class symbols
[3] = read-out: rhSYK Activity, Table 113C
[4] = read-out: rhSYK Activity, Table 33B
[5] = read-out: rhSYK Activity, Table 113A

Description: Homogeneous Time-Resolved Fluorescence (HTRF) Assay for the Recombinant Human SYK Enzyme:

SMILES: Cc1cc(Nc2nccc(C(C)C)n2)cc(-c2cnc(C3(O)CCCN(C(=O)c4nnnn4C)CC3)s2)c1 (centres unmarked) [Example 54D-18]
pIC50 [1]: > 7.00

SMILES: Cc1cc(Nc2nccc(C(F)(F)F)n2)cc(-c2cnc(C3(O)CCC(NC(=O)[C@H](C)O)CC3)s2)c1 (stereo in doubt) [Example 54E-2]
pIC50 (read-out: rhSYK activity): > 7.00

SMILES: Cc1cc(Nc2nccc(C(F)(F)F)n2)cc(-c2cnc(C3(O)CCCN(CCC(=O)O)CC3)s2)c1 (centres unmarked) [Example 54A-84]
pIC50 [1]: > 7.00

SMILES: COC(=O)CCN1CCCC(O)(c2ncc(-c3cc(C)cc(Nc4nccc(C(F)(F)F)n4)c3)s2)CC1 (centres unmarked) [Example 54A-88]
pIC50 [1]: > 7.00

SMILES: Cc1cc(Nc2nccc(C(C)C)n2)cc(-c2cnc(C3(O)CCCN(C(=O)OC(C)(C)C)CC3)s2)c1 (single isomer, unassigned) [113C-20]
pIC50 [3]: 6.00 to 7.00

SMILES: Cc1cc(Nc2nccc(C(C)F)n2)cc(-c2cnc(C3(O)CCNC(=O)CC3)s2)c1 (single isomer, unassigned) [113C-3]
pIC50 [3]: > 7.00

SMILES: CCC1C(C)C(C(=O)O)CCC1(O)c1ncc(-c2cc(C)cc(Nc3nccc(C(F)(F)F)n3)c2)s1 (single isomer, unassigned) [Example 33B-41]
pIC50 [4]: > 7.00

SMILES: Cc1cc(Nc2nccc(C(F)(F)F)n2)cc(-c2cnc(C3(O)CCC(C(=O)O)C4(CC4)C3)s2)c1 (centres unmarked) [Example 33B-17]
pIC50 [4]: > 7.00

SMILES: CCOC(=O)C1(C)CCC(O)(c2ncc(-c3cc(C)cc(Nc4nccc(C(F)(F)F)n4)c3)s2)CC1 (centres unmarked) [33A-10]
pIC50 (read-out: rhSYK Activity, Table 33-A): > 7.00

SMILES: Cc1cc(Nc2nccc(C(F)(F)F)n2)cc(-c2cnc(C3(O)CCCN(CC(=O)OC(C)(C)C)CC3)s2)c1 (centres unmarked) [Example 54A-89]
pIC50 [1]: > 7.00

SMILES: Cc1cc(Nc2nccc(C(F)F)n2)cc(-c2cnc(C3(O)CCNC(=O)CC3)s2)c1 (centres unmarked) [113C-7]
pIC50 [3]: > 7.00

SMILES: Cc1cc(Nc2nccc(C(F)(F)F)n2)cc(-c2cnc(C3(O)CC(C(=O)O)C(C)(C)C3)s2)c1 (single isomer, unassigned) [Example 33B-5]
pIC50 [4]: > 7.00

SMILES: COC(=O)[C@H]1CC[C@](O)(c2ncc(-c3cc(C)cc(Nc4nccc(C(F)(F)F)n4)c3)s2)CC1(C)C [Example 113A-65]
pIC50 [5]: > 7.00

SMILES: Cc1cc(Nc2nccc(C(F)(F)F)n2)cc(-c2cnc(C3(O)CCC(C(=O)O)OC3)s2)c1 (single isomer, unassigned) [Example 113D-11]
pIC50 (read-out: rhSYK Activity, Table 113D, lower part (Structure)): > 7.00

SMILES: CCCCNC(=O)N1CCC(O)(c2ncc(-c3cc(C)cc(Nc4nccc(C(F)(F)F)n4)c3)s2)CC1 [Example 54A-61]
pIC50 [1]: > 7.00

SMILES: Cc1cc(Nc2nccc(C(F)(F)F)n2)cc(-c2cnc(C3CCC4(CC3)OCCO4)s2)c1 [Example 36A-12]
pIC50 (read-out: rhSYK Activity, Table 36A): 6.00 to 7.00

SMILES: COc1ccnc(Nc2cc(C)cc(-c3cnc([C@]4(O)CC[C@@H](C(=O)O)[C@@H](C)C4)s3)c2)n1 [Example 113A-17]
pIC50 [5]: > 7.00

SMILES: COc1nc(Nc2cc(C)cc(-c3cnc(C4(O)CCCNCC4)s3)c2)ncc1Cl (single isomer, unassigned) [113C-15]
pIC50 [3]: > 7.00

Further lines, results first:

pIC50 [2]: > 7.00
SMILES: Cc1cc(Nc2nccc(C(F)(F)F)n2)cc(-c2cnc(C3(O)CCC(C(=O)NCc4cc(O)no4)CC3)s2)c1 (centres unmarked) [Example 119-65]

pIC50 [2]: > 7.00
SMILES: Cc1cc(Nc2nccc(C)n2)cc(-c2cnc(C3(O)CCC(C(=O)NCCCN4CCCC4=O)C(C)C3)s2)c1 (centres unmarked) [Example 119-116]

pIC50 (read-out: rhSYK activity): > 7.00
SMILES: Cc1cc(Nc2nccc(OC3CCNCC3)n2)cc(-c2cnc(C3(NC(=O)NC(N)=O)CCC3)s2)c1 [Example 65-5]

pIC50 (read-out: rhSYK Activity, Table 26): > 7.00
SMILES: Cc1cc(Nc2nccc(C(F)(F)F)n2)cc(-c2cnc(C3(F)CCC(C(=O)O)CC3)s2)c1 (centres unmarked) [Example 26-1]

pIC50 (read-out: rhSYK Activity, Table 15): > 7.00
SMILES: CC(O)(c1ncc(-c2cccc(Nc3nccc(C(F)(F)F)n3)c2)s1)C1CC1 (centres unmarked) [Example 15-3]

pIC50 (read-out: rhSYK activity): > 7.00
SMILES: COc1ccnc(Nc2cc(C)cc(-c3cnc(C4(NC(N)=O)CCC4)s3)c2)n1 [Example 64-4]

pIC50 (read-out: rhSYK activity): > 7.00
SMILES: Cc1cc(Nc2nccc(C(F)(F)F)n2)cc(-c2cnc(C3(NC(=O)C4(C(N)=O)CC4)COC3)s2)c1 [Example 67-1]

pIC50 (read-out: rhSYK activity): > 7.00
SMILES: Cc1cc(Nc2nccc(OC3CCNCC3)n2)cc(-c2cnc(C3(NC(N)=O)CCC3)s2)c1 [Example 64-5]
